Several values for one entry are separate records, joined by “and”; a condition that tells them apart may be missing. Equal entries are not always repeated. Structures can show the parent of a compound that is named as a salt. Where two headings read alike, the source gives them in different places.
Test system: inflamed rat hind paw
Test: Randall-Selitto test in rats (carrageenan-induced inflammatory pain, mechanical nociceptive threshold)
Format: in vivo
Settings: for ED50: Rattus norvegicus; for timepoint of peak effect: substance applied alone, A i.v., NSAIDs i.p.
Experimental: The weight ratios of the components (a) and (b) that will lead to a supra-additive effect (synergistic effect) of the inventive pharmaceutical composition may be determined via the test of Randall and Selitto as described in Arch. Int. Pharmacodyn., 1957, 111: 409 to 419, which is a model for inflammatory pain. The respective part of the literature is hereby incorporated by reference and forms part of the present disclosure.
Acute inflammation is induced by an intraplantar injection of 0.1 ml of a carrageenan solution (0.5% in distilled water) into one hind paw. The mechanical nociceptive threshold is measured 4 hours after carrageenan injection using an Algesiometer (Ugo Basile, Italy). The device generates a mechanical force with a linear increase over time. The force is applied to the dorsal surface of the inflamed rat hind paw via a cone-shaped stylus with a rounded tip (2 mm tip diameter). The nociceptive threshold is defined as the force (in grams) at which the rat vocalises (cut-off force 250 g). The mechanical nociceptive threshold is measured at different timepoints after the drug or vehicle administration. The antinociceptive and antihyperalgesic activity of the tested substance is expressed as percentages of the maximal possible effect (% MPE). The group size is n=10.
The interactions studies presented herein were performed using equieffective doses of the two components, calculated from the ratio of the respective ED50 values of the components if administered alone.
The route of administration was intravenous (i.v.) for (1RS,3RS,6RS)-6-dimethylaminomethyl-1-(3-methoxy-phenyl)-cyclohexane-1,3-diol hydrochloride (A) and intraperitoneal (i.p.) for the NSAIDs diclofenac, ibuprofen, metamizol-sodium and naproxen. […] (diclofenac, ibuprofen) and 45 min p. appl. (naproxen, metamizol-sodium).

[1] = ip, measured at peak effect 30 min (diclofenac, ibuprofen) or 45 min (naproxen, metamizol-sodium) p. appl., n=10, read-out: ED50 of the NSAID applied alone

Row | Compound | ED50 (iv, measured at peak effect 15 min p. appl., 4 h after carrageenan, % MPE, n=10, 95% range in brackets, read-out: ED50 of A applied alone) | ED50 of A applied alone (i.v., measured at peak effect 15 min p. appl., 4 h after carrageenan, % MPE, n=10, 95% range in brackets, hydrochloride) | timepoint of peak effect | ED50 [1] | ED50 of the NSAID applied alone (i.p., measured at peak effect 30 min (diclofenac, ibuprofen) or 45 min (naproxen, metamizol-sodium) p. appl., n=10)
1 | COc1cccc([C@@]2(O)C[C@H](O)CC[C@@H]2CN(C)C)c1 (racemic) [A, (1RS,3RS,6RS)-6-dimethylaminomethyl-1-(3-methoxy-phenyl)-cyclohexane-1,3-diol hydrochloride] | 15.8 mg/kg | 14.5 (13.3-15.6) mg/kg and 14.1 (13.2-15.1) mg/kg | 15 min p. appl. | – | –
2 | O=C(O)Cc1ccccc1Nc1c(Cl)cccc1Cl [Diclofenac, diclofenac] | – | – | 30 min p. appl. | 146 mg/kg | –
3 | CC(C)Cc1ccc(C(C)C(=O)O)cc1 (centres unmarked) [Ibuprofen] | – | – | 30 min p. appl. | 139 mg/kg | –
4 | Cc1c(N(C)CS(=O)(=O)[O-])c(=O)n(-c2ccccc2)n1C.[Na+] [Metamizol-Sodium, metamizol-sodium] | – | – | 45 min p. appl. | – | 88.1 (77.5-98.3) mg/kg
5 | COc1ccc2cc([C@H](C)C(=O)O)ccc2c1 [Naproxen, naproxen] | – | – | 45 min p. appl. | 164 mg/kg | –

Reference: US20100063009A1, “Pharmaceutical Combination Comprising 6-Dimethylaminomethyl-1-(3-methoxy-phenyl)-cyclohexane-1.3-diol and an NSAID” (GRUENENTHAL GmbH, priority 2008, published 2010)
